Columns and labels:
Assay in all cases: relative viability (nuclei count vs DMSO), 5 days (fraction); higher = more cells survive
NCI-H1666 = system: NCI-H1666
Summary of the method: (§1)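 The day after seeding in 1536-well plates, lung cancer cell lines were treated by pin tool with a single drug, or with a fixed anchor-drug dose together with five library-drug doses (not always all listed) in √10 steps. After 5 days, a combined fix-and-stain solution (final 0.05% Triton X-100, 1% formaldehyde, 1 ug/ml Hoechst) was added. Nuclei counted on 4× images gave relative viability as treated counts over vehicle counts, reported as the median of duplicate plates.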

ABC-1 = system: ABC-1
Summary of the method: as §1

NCI-H1355 = system: NCI-H1355
Summary of the method: as §1

NCI-H727 = system: NCI-H727
Summary of the method: as §1

NCI-H2170 = system: NCI-H2170
Summary of the method: as §1

NCI-H460 = system: NCI-H460
Summary of the method: as §1

SW 1573 = system: SW 1573
Summary of the method: as §1

NCI-H520 = system: NCI-H520
Summary of the method: as §1

NCI-H647 = system: NCI-H647
Summary of the method: as §1

NCI-H1944 = system: NCI-H1944
Summary of the method: as §1

NCI-H1755 = system: NCI-H1755
Summary of the method: as §1

NCI-H1993 = system: NCI-H1993
Summary of the method: as §1

NCI-H2126 = system: NCI-H2126
Summary of the method: as §1

SK-LU-1 = system: SK-LU-1
Summary of the method: as §1

PC-14 = system: PC-14
Summary of the method: as §1

EMC-BAC-2 = system: EMC-BAC-2
Summary of the method: as §1

LCLC-97TM1 = system: LCLC-97TM1
Summary of the method: as §1

NCI-H1975 = system: NCI-H1975
Summary of the method: as §1

NCI-H2009 = system: NCI-H2009
Summary of the method: as §1

PC-3 [JPC-3] = system: PC-3 [JPC-3]
Summary of the method: as §1

NCI-H1793 = system: NCI-H1793
Summary of the method: as §1

NCI-H2347 = system: NCI-H2347
Summary of the method: as §1

O=c1[nH]c2ccccc2n1C1CCN(CCCC(c2ccc(F)cc2)c2ccc(F)cc2)CC1 [Pimozide] + CS(=O)(=O)CCNCc1ccc(-c2ccc3ncnc(Nc4ccc(OCc5cccc(F)c5)c(Cl)c4)c3c2)o1 [Lapatinib] (partner 2 µM)
relative viability (NCI-H1666; first compound 0.08 µM): 0.592 | relative viability (NCI-H1666; first compound 0.253 µM): 0.716 | relative viability (NCI-H1666; first compound 0.8 µM): 0.621 | relative viability (NCI-H1666; first compound 2.53 µM): 0.365 | relative viability (NCI-H1666; first compound 8 µM): 0.464 | relative viability (ABC-1; first compound 0.08 µM): 1.18 | relative viability (ABC-1; first compound 0.253 µM): 0.951 | relative viability (ABC-1; first compound 0.8 µM): 1.13 | relative viability (ABC-1; first compound 2.53 µM): 1.16 | relative viability (ABC-1; first compound 8 µM): 1.22 | relative viability (NCI-H1355; first compound 0.08 µM): 1.02 | relative viability (NCI-H1355; first compound 0.253 µM): 1.09 | relative viability (NCI-H1355; first compound 0.8 µM): 0.933 | relative viability (NCI-H1355; first compound 2.53 µM): 0.939 | relative viability (NCI-H1355; first compound 8 µM): 0.982 | relative viability (NCI-H727; first compound 0.08 µM): 0.8 | relative viability (NCI-H727; first compound 0.253 µM): 0.922 | relative viability (NCI-H727; first compound 0.8 µM): 0.85 | relative viability (NCI-H727; first compound 2.53 µM): 0.754 | relative viability (NCI-H727; first compound 8 µM): 0.769 | relative viability (NCI-H2170; first compound 0.08 µM): 0.277 | relative viability (NCI-H2170; first compound 0.253 µM): 0.278 | relative viability (NCI-H2170; first compound 0.8 µM): 0.276 | relative viability (NCI-H2170; first compound 2.53 µM): 0.283 | relative viability (NCI-H2170; first compound 8 µM): 0.272 | relative viability (NCI-H460; first compound 0.08 µM): 1.06 | relative viability (NCI-H460; first compound 0.253 µM): 0.859 | relative viability (NCI-H460; first compound 0.8 µM): 0.949 | relative viability (NCI-H460; first compound 2.53 µM): 0.856 | relative viability (NCI-H460; first compound 8 µM): 0.826 | relative viability (SW 1573; first compound 0.08 µM): 1.11 | relative viability (SW 1573; first compound 0.253 µM): 1.12 | relative viability (SW 1573; first compound 0.8 µM): 1.12 | relative viability (SW 1573; first compound 2.53 µM): 1.16 | relative viability (SW 1573; first compound 8 µM): 1.11 | relative viability (NCI-H520; first compound 0.08 µM): 0.863 | relative viability (NCI-H520; first compound 0.253 µM): 0.922 | relative viability (NCI-H520; first compound 0.8 µM): 0.621 | relative viability (NCI-H520; first compound 2.53 µM): 0.821 | relative viability (NCI-H520; first compound 8 µM): 0.776 | relative viability (NCI-H647; first compound 0.08 µM): 1.18 | relative viability (NCI-H647; first compound 0.253 µM): 1.03 | relative viability (NCI-H647; first compound 0.8 µM): 0.973 | relative viability (NCI-H647; first compound 2.53 µM): 0.964 | relative viability (NCI-H647; first compound 8 µM): 0.58 | relative viability (NCI-H1944; first compound 0.08 µM): 0.802 | relative viability (NCI-H1944; first compound 0.253 µM): 0.76 | relative viability (NCI-H1944; first compound 0.8 µM): 0.62 | relative viability (NCI-H1944; first compound 2.53 µM): 0.772 | relative viability (NCI-H1944; first compound 8 µM): 0.794 | relative viability (NCI-H1755; first compound 0.08 µM): 1.01 | relative viability (NCI-H1755; first compound 0.253 µM): 1.01 | relative viability (NCI-H1755; first compound 0.8 µM): 0.951 | relative viability (NCI-H1755; first compound 2.53 µM): 1.03 | relative viability (NCI-H1755; first compound 8 µM): 0.849 | relative viability (NCI-H1993; first compound 0.08 µM): 0.894 | relative viability (NCI-H1993; first compound 0.253 µM): 0.714 | relative viability (NCI-H1993; first compound 0.8 µM): 0.697 | relative viability (NCI-H1993; first compound 2.53 µM): 0.788 | relative viability (NCI-H1993; first compound 8 µM): 0.901 | relative viability (NCI-H2126; first compound 0.08 µM): 0.743 | relative viability (NCI-H2126; first compound 0.253 µM): 0.675 | relative viability (NCI-H2126; first compound 0.8 µM): 0.708 | relative viability (NCI-H2126; first compound 2.53 µM): 0.724 | relative viability (NCI-H2126; first compound 8 µM): 0.766 | relative viability (SK-LU-1; first compound 0.08 µM): 0.773 | relative viability (SK-LU-1; first compound 0.253 µM): 0.846 | relative viability (SK-LU-1; first compound 0.8 µM): 0.859 | relative viability (SK-LU-1; first compound 2.53 µM): 0.826 | relative viability (SK-LU-1; first compound 8 µM): 0.731 | relative viability (PC-14; first compound 0.253 µM): 0.38 | relative viability (PC-14; first compound 0.8 µM): 0.297 | relative viability (PC-14; first compound 2.53 µM): 0.334 | relative viability (PC-14; first compound 8 µM): 0.325 | relative viability (EMC-BAC-2; first compound 0.08 µM): 0.865 | relative viability (EMC-BAC-2; first compound 0.253 µM): 0.832 | relative viability (EMC-BAC-2; first compound 0.8 µM): 0.843 | relative viability (EMC-BAC-2; first compound 2.53 µM): 0.885 | relative viability (EMC-BAC-2; first compound 8 µM): 0.868 | relative viability (LCLC-97TM1; first compound 0.08 µM): 0.957 | relative viability (LCLC-97TM1; first compound 0.253 µM): 0.856 | relative viability (LCLC-97TM1; first compound 0.8 µM): 0.957 | relative viability (LCLC-97TM1; first compound 2.53 µM): 0.981 | relative viability (LCLC-97TM1; first compound 8 µM): 0.814 | relative viability (NCI-H1975; first compound 0.08 µM): 0.928 | relative viability (NCI-H1975; first compound 0.253 µM): 0.848 | relative viability (NCI-H1975; first compound 0.8 µM): 0.945 | relative viability (NCI-H1975; first compound 2.53 µM): 0.897 | relative viability (NCI-H1975; first compound 8 µM): 0.751 | relative viability (NCI-H2009; first compound 0.08 µM): 0.955 | relative viability (NCI-H2009; first compound 0.253 µM): 0.977 | relative viability (NCI-H2009; first compound 0.8 µM): 0.861 | relative viability (NCI-H2009; first compound 2.53 µM): 0.715 | relative viability (NCI-H2009; first compound 8 µM): 0.763 | relative viability (PC-3 [JPC-3]; first compound 0.253 µM): 0.414 | relative viability (PC-3 [JPC-3]; first compound 0.8 µM): 0.409 | relative viability (PC-3 [JPC-3]; first compound 2.53 µM): 0.441 | relative viability (PC-3 [JPC-3]; first compound 8 µM): 0.406 | relative viability (NCI-H1793; first compound 0.08 µM): 0.785 | relative viability (NCI-H1793; first compound 0.253 µM): 0.641 | relative viability (NCI-H1793; first compound 0.8 µM): 0.593 | relative viability (NCI-H1793; first compound 2.53 µM): 0.481 | relative viability (NCI-H1793; first compound 8 µM): 0.654 | relative viability (NCI-H2347; first compound 0.08 µM): 0.834 | relative viability (NCI-H2347; first compound 0.253 µM): 0.92 | relative viability (NCI-H2347; first compound 0.8 µM): 0.771 | relative viability (NCI-H2347; first compound 2.53 µM): 0.926 | relative viability (NCI-H2347; first compound 8 µM): 0.978

Source: the supplement of paper PMC10307832
